ChEMBL document CHEMBL3639170, “Carboxy isatin hydrazones and their esters as Shp2 inhibitors” (2014)

Target: T1, Tyrosine-protein phosphatase non-receptor type 11 (Homo sapiens, UniProt Q06124)
T1 sequence (Q06124 whole entry): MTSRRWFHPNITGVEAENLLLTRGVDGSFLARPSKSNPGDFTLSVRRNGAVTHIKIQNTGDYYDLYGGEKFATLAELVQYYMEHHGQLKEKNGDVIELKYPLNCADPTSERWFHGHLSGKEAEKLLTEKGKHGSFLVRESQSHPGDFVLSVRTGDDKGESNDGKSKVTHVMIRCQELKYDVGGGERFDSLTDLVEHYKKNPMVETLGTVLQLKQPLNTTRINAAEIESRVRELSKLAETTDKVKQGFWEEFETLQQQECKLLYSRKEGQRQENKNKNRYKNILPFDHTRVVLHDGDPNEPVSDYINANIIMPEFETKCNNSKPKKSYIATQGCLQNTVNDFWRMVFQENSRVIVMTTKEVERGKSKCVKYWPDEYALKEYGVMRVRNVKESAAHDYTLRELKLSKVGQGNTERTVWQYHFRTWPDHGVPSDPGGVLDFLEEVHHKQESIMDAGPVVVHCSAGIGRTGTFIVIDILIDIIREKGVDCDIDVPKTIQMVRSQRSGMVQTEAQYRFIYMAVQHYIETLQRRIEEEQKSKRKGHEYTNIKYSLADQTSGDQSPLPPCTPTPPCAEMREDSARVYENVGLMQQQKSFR
Test: Inhibition Assay: In vitro Shp2 PTP activity inhibition assay for determination of IC50 was performed with a recombinant GST-Shp2 PTP domain protein using 6,8-difluoro-4-methylumbelliferyl phosphate (DiFMUP, Invitrogen) as the substrate similar to that described previously (Chen, et al., Discovery of a novel shp2 protein tyrosine phosphatase inhibitor. Mol Pharmacol 2006; 70:562-70).

SMILES: O=C(O)C(O)CC(=O)N1CCc2cc(S(=O)(=O)N3CCN(c4cccc(Cl)c4)CC3)ccc21 (stereo unspecified)
- IC50: 8.2 µM
